Literature values in patent US12472190B2, “Pharmaceutical compositions” (CIPLA Limited, priority 2010, dated 2025).

Conditions: relative to S (−) isomer of budesonide; no test described

CCC[C@@H]1O[C@@H]2C[C@H]3[C@@H]4CCC5=CC(=O)C=C[C@]5(C)[C@H]4[C@@H](O)C[C@]3(C)[C@]2(C(=O)CO)O1 [R (+) budesonide]
anti-inflammatory properties as compared to S (−) isomer: nearly three times as strong
